{"source": "patent US20030166631A1", "about": "“Pharmaceutical compositions and methods for administering EP2 receptor selective agonists” (priority 2001, published 2003)", "key": {"Male Sprague-Dawley rats": {"test_system": "Male Sprague-Dawley rats", "test": "Rat periosteal injection model (local injection onto femur subperiosteum)", "assay_type": "in vivo", "conditions": "for BMC: right femur, DEXA", "experimental": "Male Sprague-Dawley rats at 3 weeks of age were used. The rats were anesthetized with isoflurane inhalation (2-3 minutes) in a conduction chamber located in a fume hood. The right hindlimb of each rat was shaved and cleaned. A 26 G needle attached with a hamilton syringe pre-filled with testing solution was used for the local injection. The solution was injected onto the subperiosteum of the anterior, mid-diaphyseal region of the femur in a volume of 5 to 10 ul for various days. On day 15, the rats were sacrificed and the femurs were collected for analysis. Periosteal bone induction was assessed by using radiography, dual-energy X-ray absorptiometry (DEXA) and/or peripheral quantitative computed tomography (pQCT), and histomorphometry. (Michael E, Joyce, Anita B. Roberts, Michael B. Sporn, and Mark Bolander, “Transforming growth factor-β and the initiation of chondrogenesis and osteogenesis in the rat femur,” The Journal of Cell Biology 110:2195-2207 (1990)).\nThe right femurs of male Spray-Dawley rats were injected with either vehicle or test compound for 1, 3, 7, and 14 days, respectively. The solution was prepared using 2% glycine as vehicle at pH of approximately 7.8-7.9. All rats were sacrificed on day 15 and the right femurs were collected for analysis. […] The test compound was (3-(((4-tert-butyl-benzyl)-(pyridine-3-sulfonyl)-amino)-methyl)-phenoxy)-acetic acid, sodium salt;\nThe right femur of each rat was injected with test compound for 3, 7 and 14 days, respectively. The left femur of each rat was injected with vehicle to serve as its own control. The solution was prepared using 2% glycine as vehicle at pH of approximately 7.8-7.9. Drug concentration was 80 mg/ml. The injected volume was 5 μl/rat/d (0.4 mg/rat/d). All rats were sacrificed on day 15 and both right and left femurs were collected for analysis. […] The test compound was 7-{[2-(3,5-dichloro-phenoxy)-ethyl]-methanesulfonyl-amino}-heptanoic acid."}, "beagle male dogs": {"test_system": "beagle male dogs", "test": "Ulnar segmental defect model, enhancement of bone healing in dog", "assay_type": "in vivo", "experimental": "It is clinically complex to heal segmental bone loss and non-union after fractures or reconstructive surgery. […] The following is a description of the ulnar segmental defect model used to evaluate bone healing in 11±1 kg beagle male dogs, 13 months old.\nBeagle dogs were treated with antiparasitics one week before surgery and were given two doses of Baypamun (Bayer), 72 and 24 hours before the operation. Dogs were divided into four groups of eight animals.\nGroup A: 2 ml of phosphate buffered saline (PBS) was injected into the defect area filled with two helistat pre-cut sponges ([…]; 2.5×5 cm) 24, 48 and 72 hours following surgery.\nGroup B: 100 mg preparation of test compound was injected into the defect area filled with two helistat pre-cut sponges ([…]; 2.5×5 cm) 24 hours following surgery and for three consecutive days (24, 48 and 72 hours).\nGroup C: 100 mg preparation of test compound was injected into the defect area filled with two helistat pre-cut sponges ([…]; 2.5×5 cm) beginning 24 hours following surgery and daily thereafter for seven consecutive days.\nGroup D: 100 mg preparation of test compound was injected into the defect area filled with two helistat pre-cut sponges ([…]; 2.5×5 cm) 24 hours following surgery and daily thereafter for 14 days.\nWith animals under general anesthesia, the foreleg was prepped and draped in sterile fashion. A lateral incision approximately 10 cm in length was made and the ulna was exposed extraperiostally. Periosteum was cut and moved to the proximal and distal parts of the incision. Then 1.5 cm segmental defect was made in the midulna using a pendular saw. The radius and the remaining interosseal membrane were left intact. The defect site was irrigated with saline to remove bone debris. […] Both created bone ends were firmly stable and the radius served as a weight-bearing bone during the recovery process.\nThe site was then filled with the two helistat sponges as described above. In particular two Helistat sponges sized 2.5 times 5 cm were rolled to form a cylinder which was secured outside with fibrin net and two resorbable sutures. In that way subsequent dermal injections had larger areas of absorption. The soft tissues were meticulously closed in layers to aid the sponges. Injections were administered via dermal suture markers in such a way that the needle reached the opposing radius and then pulled back for approximately 5 mm. The total volume per injection was 2 ml consisting either of vehicle (PBS) or test compound in PBS. Following surgery animals were allowed full weight-bearing activity, water and food ad libitum. Radiographs of the forelimbs were obtained immediately following surgery and every two weeks thereafter until the termination of the study. Radiographs were graded on a 0 to 6 scale (Table A).\nDogs were sacrificed 12 weeks following surgery and the ulna was carefully dissected and fixed in 10% buffered formalin for histological analysis. As expected none of the control dogs re-bridged the defect confirming that the defect was a critical sized defect (Table B). Moreover, the non-union was pronounced permanent at the termination of the study since no significant progress in radiographs was observed between four and twelve weeks following surgery. In the 3-injections groups, none of the defects were re-bridged at the termination of the study. […] Radiographic scoring indicated a score between 2 and three for the dogs in this group."}, "dogs": {"test_system": "dogs", "conditions": "local infusion for 3 weeks, 500 to 2000 μg per week; cited from earlier work"}, "adult beagles": {"test_system": "adult beagles", "conditions": "0.2 mg in 0.5 ml injected into fracture sites twice a day for 10 days; cited from earlier work"}, "beagles": {"test_system": "beagles", "conditions": "0.2 mg/kg in 10% ethanol into defect site twice a day for 10 days; cited from earlier work"}, "[1]": {"test_system": "metaphysis of the left tibia", "conditions": "daily intraosseous injections for 14 days; cited from earlier work"}, "[2]": {"conditions": "14-injections group, eight dogs"}, "[3]": {"conditions": "Group D: 100 mg daily for 14 days, 12 weeks after surgery"}}}
{"smiles": "CS(=O)(=O)N(CCCCCCC(=O)O)CCOc1cc(Cl)cc(Cl)c1", "note": "[7-{[2-(3,5-dichloro-phenoxy)-ethyl]-methanesulfonyl-amino}-heptanoic acid]", "values": [{"measurement": "local bone formation by radiography", "setting": "Male Sprague-Dawley rats; 3-day treatment, eight femurs, 80 mg/ml, 5 μl/rat/d (0.4 mg/rat/d), left femur vehicle control", "result": "did not show evidence for increase bone formation locally"}, {"measurement": "femurs showing increased calcified area by radiography", "setting": "Male Sprague-Dawley rats; 7-day treatment, 80 mg/ml, 5 μl/rat/d (0.4 mg/rat/d), left femur vehicle control", "result": "Two out of eight"}, {"measurement": "femurs showing increased calcified area locally compared to controls by radiography", "setting": "Male Sprague-Dawley rats; 14-day treatment, 80 mg/ml, 5 μl/rat/d (0.4 mg/rat/d), left femur vehicle control", "result": "All femurs (n=8)"}]}
{"smiles": "CC(C)(C)c1ccc(CN(Cc2cccc(OCC(=O)[O-])c2)S(=O)(=O)c2cccnc2)cc1.[Na+]", "note": "[CP, (3-(((4-tert-butyl-benzyl)-(pyridine-3-sulfonyl)-amino)-methyl)-phenoxy)-acetic acid, sodium salt]", "values": [{"measurement": "BMC", "setting": "Male Sprague-Dawley rats; 1 day of dosing, sacrifice day 15", "result": "0.0469 ± 0.0030", "unit": "g"}, {"measurement": "BMC", "setting": "Male Sprague-Dawley rats; 3 days of dosing, sacrifice day 15", "result": "0.0446 ± 0.0064", "unit": "g"}, {"measurement": "BMC", "setting": "Male Sprague-Dawley rats; 7 days of dosing, sacrifice day 15", "result": "0.0485 ± 0.0054", "unit": "g"}, {"measurement": "BMC", "setting": "Male Sprague-Dawley rats; 14 days of dosing, sacrifice day 15", "result": "0.0533 ± 0.0044", "unit": "g"}, {"measurement": "excess calcified mass on anterior aspect of right femur, radiography", "setting": "Male Sprague-Dawley rats; 14 days of treatment, sacrifice day 15", "result": "became significant"}, {"measurement": "excess calcified mass on anterior aspect of right femur, radiography", "setting": "Male Sprague-Dawley rats; injected for 7 days, sacrifice day 15", "result": "started to show excess calcified mass"}, {"measurement": "periosteal bone formation", "setting": "Male Sprague-Dawley rats; one- or three-day treatment, sacrifice day 15", "result": "did not result in periosteal bone formation"}, {"measurement": "defined region bone area and bone mineral content (BMC) by DEXA compared to vehicle", "setting": "Male Sprague-Dawley rats; vs vehicle-treated rats (Table I)", "result": "significantly increased"}, {"measurement": "defects re-bridged at termination of the study", "setting": "beagle male dogs; 3-injections group", "result": "none"}, {"measurement": "histological analysis of newly formed bone", "setting": "beagle male dogs; 3-injections group", "result": "complete mineralization of the newly formed bone"}, {"measurement": "new bone induction (osteoconduction and periosteal reaction)", "setting": "beagle male dogs; 3-injections group", "result": "observed in all the dogs"}, {"measurement": "bone formation in the defect area", "setting": "beagle male dogs; 7-injections group", "result": "Both endosteal and periosteal bone formation was observed"}, {"measurement": "dogs showing full re-bridgement", "setting": "beagle male dogs; 7-injections group", "result": "none"}, {"measurement": "histological analysis of newly formed bone", "setting": "beagle male dogs; 7-injections group", "result": "fully mineralized"}, {"measurement": "dogs showing full re-bridgement by x-rays and histology", "setting": "beagle male dogs; 14-injections group", "result": "two of the eight"}, {"measurement": "dogs with large amount of new bone formation in defect area but defect not completely filled", "setting": "beagle male dogs; [2]", "result": "Three other dogs"}, {"measurement": "dogs with relatively less bone formation, pronounced non-responders", "setting": "beagle male dogs; [2]", "result": "Three dogs"}, {"measurement": "Bridging/8 dogs", "setting": "beagle male dogs; Group B: 100 mg, 3 injections, 12 weeks after surgery", "result": "0/8"}, {"measurement": "Bridging/8 dogs (medial healing)", "setting": "beagle male dogs; Group C: 100 mg daily for 7 days, 12 weeks after surgery", "result": "1/8 showed medial healing"}, {"measurement": "Radiographic Grading/8 dogs", "setting": "beagle male dogs; Group D: 100 mg daily for 14 days, 0 to 6 scale", "result": "4-6"}, {"measurement": "Bridging/8 dogs (good bridging)", "setting": "beagle male dogs; [3]", "result": "4/8"}, {"measurement": "dogs showing almost complete healing", "setting": "beagle male dogs; [3]", "result": "Three"}]}
{"smiles": "CCCCC[C@H](O)/C=C/[C@H]1[C@H](O)CC(=O)[C@@H]1CCCCCCC(=O)O", "note": "[PGE1, prostaglandin E1]", "values": [{"measurement": "alveolar bone formation in the mandible", "setting": "dogs", "result": "produced a dramatic, localized formation of alveolar bone"}, {"measurement": "bone matrix formation at fracture site", "setting": "adult beagles", "result": "induced bone matrix formation on the periosteal envelope"}, {"measurement": "periosteal and cortical endosteal bone formation", "setting": "beagles", "result": "more periosteal and cortical endosteal bone formation"}]}
{"smiles": "CCCCC[C@H](O)/C=C/[C@H]1[C@H](O)CC(=O)[C@@H]1C/C=C\\CCCC(=O)O", "note": "[PGE2, Prostaglandin E2]", "values": [{"measurement": "trabecular bone in the metaphysis", "setting": "[1]", "result": "significant increase of trabecular bone"}]}
